Measurements: patent publication US10167279B2 (NOVARTIS AG, priority 2014, dated 2019)

Experiments:
[1] = target: C-Raf FL (Homo sapiens (Human), UniProt P04049, Y340E/Y341E); test: In vitro Raf activity determination (Alpha Screen, phospho-MEK), C-Raf FL (full length, Y340E/Y341E); format: biochemical; details: ATP 1 μM; 60 min pre-incubation; 1 hour reaction; column head does not say FL or TR
Procedure, shortened: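 Sf9-expressed C-Raf incubated with biotinylated kinase-dead MEK1 (K97R) in 50 mM Tris pH 7.5, 15 mM MgCl2, 0.01% BSA, 1 mM DTT with compound, 60 min at room temperature. Phospho-MEK detected by anti-p-MEK AlphaScreen luminescence; IC50 by non-linear regression.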

[2] = target: b-Raf (V600E) (Homo sapiens (Human), UniProt P15056, V600E); test: In vitro Raf activity determination (Alpha Screen, phospho-MEK), b-Raf (V600E); format: biochemical; details: ATP 10 μM, 60 min pre-incubation, 3 hours reaction
Chain of b-Raf (V600E) (P15056 whole entry V600E): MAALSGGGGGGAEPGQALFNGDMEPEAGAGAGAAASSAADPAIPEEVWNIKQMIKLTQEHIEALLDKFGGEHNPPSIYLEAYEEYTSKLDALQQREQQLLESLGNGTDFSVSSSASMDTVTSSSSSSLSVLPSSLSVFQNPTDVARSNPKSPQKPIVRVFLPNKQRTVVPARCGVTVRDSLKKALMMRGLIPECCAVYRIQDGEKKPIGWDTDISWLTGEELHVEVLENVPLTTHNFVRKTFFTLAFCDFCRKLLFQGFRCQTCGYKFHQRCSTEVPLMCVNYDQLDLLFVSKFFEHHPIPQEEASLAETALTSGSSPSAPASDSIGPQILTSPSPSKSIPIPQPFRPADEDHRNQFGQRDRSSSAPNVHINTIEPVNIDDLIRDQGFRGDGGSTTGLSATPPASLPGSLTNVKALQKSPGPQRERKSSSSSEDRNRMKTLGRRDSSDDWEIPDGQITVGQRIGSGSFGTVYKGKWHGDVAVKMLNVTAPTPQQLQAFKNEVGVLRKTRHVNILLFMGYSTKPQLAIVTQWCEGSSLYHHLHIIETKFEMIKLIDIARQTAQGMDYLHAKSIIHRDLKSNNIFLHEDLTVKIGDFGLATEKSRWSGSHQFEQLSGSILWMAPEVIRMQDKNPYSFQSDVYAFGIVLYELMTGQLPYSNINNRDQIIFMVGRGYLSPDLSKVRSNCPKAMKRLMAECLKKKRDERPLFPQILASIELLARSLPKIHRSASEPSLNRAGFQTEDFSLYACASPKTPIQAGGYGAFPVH

Chain of C-Raf FL (P04049 whole entry Y340E/Y341E): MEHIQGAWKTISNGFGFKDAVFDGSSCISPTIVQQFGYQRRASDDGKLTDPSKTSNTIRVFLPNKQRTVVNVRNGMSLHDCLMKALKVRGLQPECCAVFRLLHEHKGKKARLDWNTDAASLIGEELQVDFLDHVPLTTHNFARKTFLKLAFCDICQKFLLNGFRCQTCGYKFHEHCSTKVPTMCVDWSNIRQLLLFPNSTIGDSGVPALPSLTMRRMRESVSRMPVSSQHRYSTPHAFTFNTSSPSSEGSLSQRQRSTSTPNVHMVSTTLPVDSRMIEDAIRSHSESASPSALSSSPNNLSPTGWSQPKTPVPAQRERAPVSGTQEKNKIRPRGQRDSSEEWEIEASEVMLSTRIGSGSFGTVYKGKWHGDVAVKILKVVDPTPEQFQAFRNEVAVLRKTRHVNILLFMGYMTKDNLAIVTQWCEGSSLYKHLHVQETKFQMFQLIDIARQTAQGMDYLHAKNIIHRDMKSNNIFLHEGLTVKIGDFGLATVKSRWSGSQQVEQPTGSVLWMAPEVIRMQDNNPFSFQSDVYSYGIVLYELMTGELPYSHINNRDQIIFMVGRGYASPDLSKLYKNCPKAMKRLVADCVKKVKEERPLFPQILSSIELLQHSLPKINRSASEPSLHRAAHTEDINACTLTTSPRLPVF
Chain of C-Raf FL (P63104 whole entry partner): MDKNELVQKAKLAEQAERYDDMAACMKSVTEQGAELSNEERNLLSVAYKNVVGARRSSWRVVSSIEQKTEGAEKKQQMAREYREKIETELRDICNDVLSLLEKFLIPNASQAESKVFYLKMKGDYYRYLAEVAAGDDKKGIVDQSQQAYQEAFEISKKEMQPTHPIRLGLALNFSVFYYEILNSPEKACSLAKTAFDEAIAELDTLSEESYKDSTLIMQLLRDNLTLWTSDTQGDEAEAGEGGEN

SMILES	IC50 [1]	IC50 [2]
COc1cc(-c2cc(NC(=O)c3ccnc(C(C)(C)C#N)c3)ccc2C)cc(C2COC2)c1 [Example 23, 2-(2-cyanopropan-2-yl)-N-(3′-methoxy-6-methyl-5′-(oxetan-3-yl)-[1,1′-biphenyl]-3-yl)isonicotinamide]	25000 nM	25000 nM
COc1ncc(-c2cc(NC(=O)c3cc(C(C)(C)C#N)ccn3)cnc2C)cc1C1(F)COC1 [Example 86, 4-(2-cyanopropan-2-yl)-N-(5′-(3-fluorooxetan-3-yl)-6′-methoxy-2-methyl-[3,3′-bipyridin]-5-yl)picolinamide]	2.33 nM	14.7 nM
COc1ncc(-c2cc(NC(=O)c3ccnc(C(C)(C)O)c3)cnc2C)cc1C1(F)COC1 [Example 81, N-(5′-(3-fluorooxetan-3-yl)-6′-methoxy-2-methyl-[3,3′-bipyridin]-5-yl)-2-(2-hydroxypropan-2-yl)isonicotinamide]	4.85 nM	34.9 nM
COc1ncc(-c2cc(NC(=O)c3cc(C(C)(C)F)ccn3)ccc2C)cc1C1(O)COC1 [Example 95, 4-(2-fluoropropan-2-yl)-N-(3-(5-(3-hydroxyoxetan-3-yl)-6-methoxypyridin-3-yl)-4-methylphenyl)picolinamide]	0.514 nM	3.92 nM
COc1ncc(-c2cc(NC(=O)c3ccnc(C(C)(C)F)c3)ccc2C)cc1C1(CF)COC1 [Example 104, N-(3-(5-(3-(fluoromethyl)oxetan-3-yl)-6-methoxypyridin-3-yl)-4-methylphenyl)-2-(2-fluoropropan-2-yl)isonicotinamide]	0.128 nM	0.417 nM
COc1ncc(-c2cc(NC(=O)c3ccnc(C(C)(C)C#N)c3)ccc2C)cc1C1(C=O)COC1 [Example 43, 2-(2-cyanopropan-2-yl)-N-(3-(5-(3-formyloxetan-3-yl)-6-methoxypyridin-3-yl)-4-methylphenyl)isonicotin-amide]	2.67 nM	10.2 nM
COc1ncc(-c2cc(C(=O)Nc3ccnc(S(C)(=O)=O)c3)ccc2C)cc1C1(O)COC1 [Example 145, 3-(5-(3-hydroxyoxetan-3-yl)-6-methoxypyridin-3-yl)-4-methyl-N-(2-(methylsulfonyl)pyridin-4-yl)benzamide]	7.29 nM	49.3 nM
Cc1ccc(NC(=O)c2ccnc(C(C)(C)F)c2)cc1-c1cc(C2COC2)c(=O)n(C)c1 [Example 110, 2-(2-fluoropropan-2-yl)-N-(4-methyl-3-(1-methyl-5-(oxetan-3-yl)-6-oxo-1,6-dihydropyridin-3-yl)phenyl)isonicotinamide]	1.52 nM	9.98 nM
Cc1ccc(NC(=O)c2ccnc(C(C)(C)O)c2)cc1-c1cc(C2(C)COC2)c2nccn2n1 [Example 62, 2-(2-hydroxypropan-2-yl)-N-(4-methyl-3-(8-(3-methyloxetan-3-yl)imidazo[1,2-b]pyridazin-6-yl)phenyl)isonicotinamide]	0.707 nM	3.77 nM
COc1ncc(-c2cc(NC(=O)c3ccnc(C(C)(C)F)c3)ccc2C)cc1C1(C#N)COC1 [Example 111, N-(3-(5-(3-cyanooxetan-3-yl)-6-methoxypyridin-3-yl)-4-methylphenyl)-2-(2-fluoropropan-2-yl)isonicotinamide]	0.716 nM	2.75 nM
COc1ncc(-c2cc(NC(=O)c3cc(C(C)(C)N)cc(C(F)(F)F)c3)ccc2C)cc1C1(CF)COC1 [Example 108, 3-(2-aminopropan-2-yl)-N-(3-(5-(3-(fluoromethyl)oxetan-3-yl)-6-methoxypyridin-3-yl)-4-methylphenyl)-5-(trifluoromethyl)benzamide]	0.424 nM	1.8 nM
COc1ncc(-c2cc(NC(=O)c3ccnc(C(F)F)c3)ccc2C)cc1C1(O)COC1 [Example 98, 2-(difluoromethyl)-N-(3-(5-(3-hydroxyoxetan-3-yl)-6-methoxypyridin-3-yl)-4-methylphenyl)isonicotin-amide]	1.11 nM	13.1 nM
COc1ncc(-c2cc(NC(=O)c3ccnc(C(C)(C)C#N)c3)ccc2C)cc1C1(O)COC1 [Example 72, 2-(2-cyanopropan-2-yl)-N-(3-(5-(3-hydroxyoxetan-3-yl)-6-methoxypyridin-3-yl)-4-methylphenyl)isonicotin-amide]	1.04 nM	4.2 nM
COc1ncc(-c2cc(NC(=O)c3cc(C(C)(C)N)cc(C(F)(F)F)c3)ccc2C)cc1C1(O)COC1 [Example 101, 3-(2-aminopropan-2-yl)-N-(3-(5-(3-hydroxyoxetan-3-yl)-6-methoxypyridin-3-yl)-4-methylphenyl)-5-(trifluoromethyl)benzamide]	1.45 nM	6.39 nM

Next, values leading:

IC50 [1]	IC50 [2]	SMILES
0.9 nM	4.75 nM	COc1ncc(-c2cc(NC(=O)c3cc(C(C)(C)N)cc(C(F)(F)F)c3)cnc2C)cc1C1(C(F)F)COC1 [Example 113, 3-(2-aminopropan-2-yl)-N-(5′-(3-(difluoromethyl)oxetan-3-yl)-6′-methoxy-2-methyl-[3,3′-bipyridin]-5-yl)-5-(trifluoromethyl)benzamide]
8.63 nM	67.9 nM	Cc1ncc(NC(=O)c2cccc(C(F)(F)F)c2)cc1-c1cc(C2(F)COC2)c(=O)n(CCCO)c1 [Example 44, N-(5′-(3-fluorooxetan-3-yl)-1′-(3-hydroxypropyl)-2-methyl-6′-oxo-1′,6′-dihydro-[3,3′-bipyridin]-5-yl)-3-(trifluoromethyl)benzamide]
6.36 nM	76.6 nM	COc1ncc(-c2cc(NC(=O)c3ccnc(C(F)(F)F)c3)cnc2C)cc1C1(O)COC1 [Example 75, N-(5′-(3-hydroxyoxetan-3-yl)-6′-methoxy-2-methyl-[3,3′-bipyridin]-5-yl)-2-(trifluoromethyl)isonicotin-amide]
3.93 nM	22.8 nM	COc1ncc(-c2cc(NC(=O)c3ccnc(C(C)(C)F)c3)cnc2C)cc1C1(O)COC1 [Example 76, 2-(2-fluoropropan-2-yl)-N-(5′-(3-hydroxyoxetan-3-yl)-6′-methoxy-2-methyl-[3,3′-bipyridin]-5-yl)isonicotinamide]
0.455 nM	3.52 nM	Cc1ncc(NC(=O)c2cccc(C(F)(F)F)c2)cc1-c1cccc(C2(C)COC2)c1 [Example 24]
0.0915 nM	0.323 nM	COc1ncc(-c2cc(NC(=O)c3ccnc(C(F)(F)F)c3)ccc2C)cc1C1(CF)COC1 [Example 105, N-(3-(5-(3-(fluoromethyl)oxetan-3-yl)-6-methoxypyridin-3-yl)-4-methylphenyl)-2-(trifluoromethyl)isonicotin-amide]
0.243 nM	1.42 nM	COc1ncc(-c2cc(NC(=O)c3ccnc(C(C)(C)F)c3)cnc2C)cc1C1(C(F)F)COC1 [Example 42, N-(5′-(3-(difluoromethyl)oxetan-3-yl)-6′-methoxy-2-methyl-[3,3′-bipyridin]-5-yl)-2-(2-fluoropropan-2-yl)isonicotinamide]
263 nM	1210 nM	Cc1ccc(NC(=O)c2ccnc(C(C)(C)C#N)c2)cc1-c1cccc(C2(C)COC2)c1 [Example 27, 2-(2-cyanopropan-2-yl)-N-(6-methyl-3′-(3-methyloxetan-3-yl)-[1,1′-biphenyl]-3-yl)isonicotinamide]
0.729 nM	4.84 nM	Cc1ncc(NC(=O)c2ccnc(C(F)(F)F)c2)cc1-c1cnc(OCCO)c(C2(F)COC2)c1 [Example 38, N-(5′-(3-fluorooxetan-3-yl)-6′-(2-hydroxyethoxy)-2-methyl-[3,3′-bipyridin]-5-yl)-2-(trifluoromethyl)isonicotin-amide]
1.25 nM	6.22 nM	COc1ncc(-c2cc(NC(=O)c3ccnc(C(C)(F)F)c3)cnc2C)cc1C1(C#N)COC1 [Example 116, N-(5′-(3-cyanooxetan-3-yl)-6′-methoxy-2-methyl-[3,3′-bipyridin]-5-yl)-2-(1,1-difluoroethyl)isonicotin-amide]
0.078 nM	0.304 nM	CCOc1ncc(-c2cc(NC(=O)c3cnnc(C(F)(F)F)c3)ccc2C)cc1C1(C)COC1 [Example 67, N-(3-(6-ethoxy-5-(3-methyloxetan-3-yl)pyridin-3-yl)-4-methylphenyl)-6-(trifluoromethyl)pyridazine-4-carboxamide]
